From US20250361240A1, “PYRANOPYRIDINE COMPOUND, PROCESS FOR PREPARING THE SAME, PHARMACEUTICAL COMPOSITION AND USE THEREOF” (Zhejiang Yangli Pharmaceutical Technology Co., Ltd., priority 2024, published 2025)

Tests used:
cortisol levels = test: Pharmacodynamic test in cynomolgus monkeys with ACTH stimulation: cortisol in plasma; format: in vivo, cynomolgus monkeys (Macaca fascicularis); conditions: 0.5 mg/kg oral
Description: (§1) Adult cynomolgus monkeys (Macaca fascicularis) with suitable body weight and age were selected. 1 male and 1 female cynomolgus monkeys were used for experiment. The adaptation period was 1 week. On the day of the experiment, monkeys were individually housed in stainless steel mesh cages for testing.
(§2) Oral treatment and ACTH working solution (working solution diluted to the desired concentration in PBS sterile solution by ultrapure water filtration through a 0.22 μm filter using Tetracosactrin (HY-P0060, MCE)) were administered as follows: • T=0, 2 monkeys in each group were orally administered 0.5 mg/kg (compound was suspended in 5% aqueous sodium hydroxymethylcellulose solution as vehicle) in a fixed volume of 2 mL/kg; • T=+1 hour (i.e., 1 hour after administration), 14.5 μg/kg of the aforementioned ACTH working solution was injected intramuscularly.
(§3) Sampling test: Blood samples (collected in EDTA anticoagulant tubes) were collected before oral administration (Pre-dose) and 0.5 h, 1 h, 2 h, 4 h, 6 h and 12 h after administration for cortisol concentration measurement in plasma. The blood was centrifuged at 10000 rpm for 15 minutes at 4° C., followed by separation of the plasma and uniform storage at −80° C. for further analysis using an Roche biochemical analyzer to detect aldosterone and cortisol in plasma, and a portion of the plasma (0.5 h, 1 h, 2 h, 4 h, 6 h, and 12 h after administration, and an additional blood collection after 24 h) was taken simultaneously to determine the pharmacokinetic parameters by LC/MS.
(§4) The above experiment was repeated except that: T=0, two monkeys in each group were orally administered at a dose of 0.05 mg/kg (compound was suspended in 5% aqueous sodium hydroxymethylcellulose as vehicle) in a fixed volume of 2 mL/kg.

CYP2C19 = CYP2C19 (Homo sapiens (Human), UniProt P33261); test: In vitro inhibitory activity against common CYP450 enzymes: CYP2C19; format: in vitro ADME; conditions: microsomes, substrate (S)-(+)-Mephenytoin
Sequence of CYP2C19 (P33261 whole entry): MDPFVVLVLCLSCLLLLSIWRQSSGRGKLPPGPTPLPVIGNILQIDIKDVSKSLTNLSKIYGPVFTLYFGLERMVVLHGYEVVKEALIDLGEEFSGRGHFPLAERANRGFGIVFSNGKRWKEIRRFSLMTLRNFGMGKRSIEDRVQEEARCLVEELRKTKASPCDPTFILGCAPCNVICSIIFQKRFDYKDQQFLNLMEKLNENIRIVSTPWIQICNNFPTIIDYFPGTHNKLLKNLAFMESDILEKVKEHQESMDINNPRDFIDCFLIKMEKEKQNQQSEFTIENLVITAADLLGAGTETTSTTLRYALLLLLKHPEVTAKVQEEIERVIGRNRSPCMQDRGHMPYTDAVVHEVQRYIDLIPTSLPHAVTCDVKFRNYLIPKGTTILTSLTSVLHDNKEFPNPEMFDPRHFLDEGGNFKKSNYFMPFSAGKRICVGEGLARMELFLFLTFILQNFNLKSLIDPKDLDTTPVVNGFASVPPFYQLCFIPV
Method: (§5) A working solution of the test compound was prepared in a solvent of dimethyl sulfoxide (DMSO) (starting at a final concentration of 50 μM, 3-fold dilution of 7 concentration points). The corresponding microsomes (CORNING, Cat No.452117) and the corresponding substrate solution were prepared (components were shown in Table 2). The working solution of the test compound and the corresponding microsomes were mixed with the corresponding substrate solution and the HLM working solution. The mixture was preheated in a 37.0° C. water bath for 10 min. NADPH cofactor (BONTAC, Cat No.BT04) was added. The resultant mixture was incubated for 10 min in a 37.0° C. water bath. The reaction was terminated by adding cold stop solution. [table] [table] The sample was centrifuged at 4000 rpm for 20 min to precipitate protein and the supernatant was transferred to HPLC water and shaken for 10 min.

CYP3A-M = CYP3A-M (Homo sapiens, UniProt P08684); test: In vitro inhibitory activity against common CYP450 enzymes: CYP3A (midazolam); format: in vitro ADME; conditions: microsomes, substrate Midazolam
Sequence of CYP3A-M (P08684 2-503 limits assumed): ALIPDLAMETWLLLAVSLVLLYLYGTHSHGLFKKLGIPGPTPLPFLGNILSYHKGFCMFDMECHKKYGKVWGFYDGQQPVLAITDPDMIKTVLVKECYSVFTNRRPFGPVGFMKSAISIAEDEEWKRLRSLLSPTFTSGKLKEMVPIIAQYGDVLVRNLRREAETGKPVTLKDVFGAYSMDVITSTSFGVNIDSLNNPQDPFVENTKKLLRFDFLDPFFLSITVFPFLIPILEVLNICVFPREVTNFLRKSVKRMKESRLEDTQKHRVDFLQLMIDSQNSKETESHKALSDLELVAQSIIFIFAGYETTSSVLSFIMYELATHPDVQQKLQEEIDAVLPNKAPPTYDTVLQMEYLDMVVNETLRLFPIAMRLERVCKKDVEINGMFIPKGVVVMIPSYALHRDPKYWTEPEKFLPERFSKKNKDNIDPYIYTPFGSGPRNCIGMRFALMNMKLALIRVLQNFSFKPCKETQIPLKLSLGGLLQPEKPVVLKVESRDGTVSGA
Method: as §5

CYP2C9 = CYP2C9 (Homo sapiens (Human), UniProt P11712); test: In vitro inhibitory activity against common CYP450 enzymes: CYP2C9; format: in vitro ADME; conditions: microsomes, substrate Diclofenac
Sequence of CYP2C9 (P11712 whole entry): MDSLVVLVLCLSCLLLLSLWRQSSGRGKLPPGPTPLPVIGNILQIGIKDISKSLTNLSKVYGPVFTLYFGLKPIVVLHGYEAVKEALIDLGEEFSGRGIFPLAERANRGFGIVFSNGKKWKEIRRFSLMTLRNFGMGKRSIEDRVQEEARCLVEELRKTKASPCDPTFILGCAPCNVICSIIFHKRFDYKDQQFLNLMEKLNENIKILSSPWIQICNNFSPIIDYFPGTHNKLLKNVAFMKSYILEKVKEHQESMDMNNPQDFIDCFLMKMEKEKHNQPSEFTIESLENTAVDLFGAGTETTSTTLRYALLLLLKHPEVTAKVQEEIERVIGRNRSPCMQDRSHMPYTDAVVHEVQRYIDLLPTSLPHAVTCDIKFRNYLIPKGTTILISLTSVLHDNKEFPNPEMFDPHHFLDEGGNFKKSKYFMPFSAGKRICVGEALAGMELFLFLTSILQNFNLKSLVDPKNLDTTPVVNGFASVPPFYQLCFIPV
Method: as §5

CYP2D6 = CYP2D6 (Homo sapiens (Human), UniProt P10635); test: In vitro inhibitory activity against common CYP450 enzymes: CYP2D6; format: in vitro ADME; conditions: microsomes, substrate Dextromethorphan
Sequence of CYP2D6 (P10635 whole entry): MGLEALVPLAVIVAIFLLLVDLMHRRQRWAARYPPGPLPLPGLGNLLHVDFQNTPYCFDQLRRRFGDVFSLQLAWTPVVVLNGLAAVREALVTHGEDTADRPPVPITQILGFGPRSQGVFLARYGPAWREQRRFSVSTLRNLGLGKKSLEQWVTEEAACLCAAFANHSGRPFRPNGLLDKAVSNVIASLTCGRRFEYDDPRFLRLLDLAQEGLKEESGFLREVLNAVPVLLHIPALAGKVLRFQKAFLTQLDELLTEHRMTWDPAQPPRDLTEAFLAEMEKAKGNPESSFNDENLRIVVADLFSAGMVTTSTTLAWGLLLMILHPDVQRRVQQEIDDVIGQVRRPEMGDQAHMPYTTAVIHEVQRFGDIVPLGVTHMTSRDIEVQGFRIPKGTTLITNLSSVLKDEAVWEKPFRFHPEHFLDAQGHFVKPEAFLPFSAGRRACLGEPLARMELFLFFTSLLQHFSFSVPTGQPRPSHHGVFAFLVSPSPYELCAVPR
Method: as §5

human CYP11B2 = human CYP11B2 (Homo sapiens (Human), UniProt P19099); test: Inhibitory activity against hCYP11B2 in G-402 CYP11B2 high expression stable transformants (aldosterone HTRF); format: cell-based
Sequence of human CYP11B2 (P19099 25-503): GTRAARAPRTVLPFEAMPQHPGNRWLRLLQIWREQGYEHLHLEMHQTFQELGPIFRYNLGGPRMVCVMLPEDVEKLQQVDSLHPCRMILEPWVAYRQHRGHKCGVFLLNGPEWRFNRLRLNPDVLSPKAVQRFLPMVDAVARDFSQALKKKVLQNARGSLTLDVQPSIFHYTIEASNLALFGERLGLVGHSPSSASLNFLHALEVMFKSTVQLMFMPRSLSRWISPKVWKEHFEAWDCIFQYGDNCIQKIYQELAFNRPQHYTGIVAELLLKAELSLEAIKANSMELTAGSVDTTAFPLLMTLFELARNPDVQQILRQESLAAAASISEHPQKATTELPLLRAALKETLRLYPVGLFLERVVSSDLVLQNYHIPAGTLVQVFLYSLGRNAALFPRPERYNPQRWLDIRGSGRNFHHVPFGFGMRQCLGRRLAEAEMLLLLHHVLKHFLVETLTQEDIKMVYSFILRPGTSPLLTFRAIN
Method: (§6) 1. Experimental System: G-402 CYP11B2 or CYP11B1 High Expression Stable Transformants
(§7) The above-mentioned high-expression stable transformants were constructed based on human […] cell line G-402. The artificial lentiviruses were introduced into human CYP11B2 (NM_000498.3) and CYP11B1 (NM_000497.4), respectively.
(§8) Maintenance medium: McCoy's 5A (modified, #16600082, GIBCO)+10% FBS (GIBCO)+1 μg/mL puromycin (A1113803, GIBCO).
(§9) Resuscitation and seeding medium: McCoy's 5A (modified, #16600082, GIBCO)+10% FBS (GIBCO).
(§10) Reaction medium: DMEM/F12 (#11320033, GIBCO)+2.5% activated charcoal filtered FBS (S11695, R & D).
(§11) Seeding: Cells were cultured to a suitable state after resuscitation with maintenance medium, and 96-well flat plates were seeded with seeding medium according to 1×10^4/100 μL/well (unified cell volume).
(§12) Changing solution: The supernatant was aspirated and discarded after seeding overnight (>12 hours) and adherence. 100-150 μL/well serum-free medium was added, and after being aspirated. After aspiration, 50 μL/well reaction medium was added for later use.
(§13) Formulation: Compound was diluted with reaction medium containing 0.4 μM substrate (final experimental concentration is 0.2 μM):
CYP11B2 substrate: 11-deoxycorticosterone (11-deoxycorticosterone, S4243, selleckchem). The final reaction concentration was 0.2 μM
(§14) Loading: The above compound dilutions were added to the cell plates at 50 μL/well. The background and control wells were set.
(§15) Treating and sampling: The cell plates were incubated in a cell incubator for 16 hours after loading, and then each cell plate was centrifuged at 450 g for 2 min. 75 μL supernatant was transferred to a collection plate and frozen at −80° C. for future use (or direct detection).
(§16) Detection: Homogeneous time-resolved fluorescence kit (Cisbio HTRF kit, Cat.64ALDPEG, Cat.62CRTPEG) was used to determine the concentration of aldosterone or cortisol in the supernatant.
(§17) Analysis: The absolute IC50 (Abs IC50) for each compound was calculated using a four parameter fit.

aldosterone synthesis = test: Pharmacodynamic test in cynomolgus monkeys with ACTH stimulation: aldosterone in plasma; format: in vivo, cynomolgus monkeys (Macaca fascicularis); conditions: 0.5 mg/kg oral
Description: as §1, §2, §3, §4

CYP1A2 = CYP1A2 (Homo sapiens (Human), UniProt P05177); test: In vitro inhibitory activity against common CYP450 enzymes: CYP1A2; format: in vitro ADME; conditions: human, microsomes, 10 min
Sequence of CYP1A2 (P05177 whole entry): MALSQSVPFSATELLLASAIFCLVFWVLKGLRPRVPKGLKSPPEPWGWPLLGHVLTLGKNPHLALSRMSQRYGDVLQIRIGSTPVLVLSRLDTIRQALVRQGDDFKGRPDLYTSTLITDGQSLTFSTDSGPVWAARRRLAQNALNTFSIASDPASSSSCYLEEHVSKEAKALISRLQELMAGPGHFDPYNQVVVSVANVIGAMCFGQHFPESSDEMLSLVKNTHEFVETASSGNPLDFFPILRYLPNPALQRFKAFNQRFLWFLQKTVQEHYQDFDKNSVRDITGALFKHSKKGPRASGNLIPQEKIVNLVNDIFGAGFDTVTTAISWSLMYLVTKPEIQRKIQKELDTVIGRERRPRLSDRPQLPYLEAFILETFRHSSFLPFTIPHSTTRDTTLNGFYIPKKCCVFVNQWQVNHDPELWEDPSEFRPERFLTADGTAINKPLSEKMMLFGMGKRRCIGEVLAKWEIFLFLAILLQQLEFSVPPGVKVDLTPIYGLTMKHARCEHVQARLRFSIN
Method: as §5

[1] = Pharmacokinetic test in cynomolgus monkeys (LC/MS); format: in vivo, cynomolgus monkeys (Macaca fascicularis); conditions: both sexes, cynomolgus monkey, plasma, 0.5 mg/kg, 0.5mpk oral
Description: as §1, §2, §3, §4

human CYP11B1 = human CYP11B1 (Homo sapiens (Human), UniProt P15538); test: Inhibitory activity against hCYP11B1 in G-402 CYP11B1 high expression stable transformants (cortisol HTRF); format: cell-based; conditions: G-402 CYP11B1 cells, 0.2 μM 11-deoxycortisol, 16 hours; read-out: hCYP11B1 Abs IC50
Sequence of human CYP11B1 (P15538 25-503): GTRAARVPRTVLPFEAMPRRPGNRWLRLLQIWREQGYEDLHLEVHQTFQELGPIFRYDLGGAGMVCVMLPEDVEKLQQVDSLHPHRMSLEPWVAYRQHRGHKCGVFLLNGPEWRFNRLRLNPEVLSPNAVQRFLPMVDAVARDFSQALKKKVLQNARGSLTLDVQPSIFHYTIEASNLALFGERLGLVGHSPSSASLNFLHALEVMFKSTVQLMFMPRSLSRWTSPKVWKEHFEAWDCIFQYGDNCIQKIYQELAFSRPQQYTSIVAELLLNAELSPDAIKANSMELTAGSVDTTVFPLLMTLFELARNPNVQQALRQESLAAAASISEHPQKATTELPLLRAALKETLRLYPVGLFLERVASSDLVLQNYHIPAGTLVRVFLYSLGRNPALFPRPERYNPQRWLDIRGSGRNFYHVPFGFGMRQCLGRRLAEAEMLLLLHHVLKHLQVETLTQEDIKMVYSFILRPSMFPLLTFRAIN
Method: as §6, §7, §8, §9, §10, §11, §12, §13
CYP11B1 substrate: 11-deoxycortisol (11-deoxycortisol, S4775, selleckchem). The final reaction concentration was 0.2 μM.
as §14, §15, §16, §17

CCC(=O)N[C@@H]1CCOc2c(-c3ccc4c(c3)CCC(=O)N4C)cncc21 [Example 1, (R)-N-(8-(1-methyl-2-oxo-1,2,3,4-tetrahydroquinolin-6-yl)-3,4-dihydro-2H-pyran[3,2-c]pyridin-4-yl)propanamide]
Cortisol Concentration in Plasma (cortisol levels; 0.5 h): 1000.0 pg/mL | Cortisol Concentration in Plasma (cortisol levels; 1 h (ACTH at +1 hour)): 876.5 pg/mL | Cortisol Concentration in Plasma (cortisol levels; 2 h): 1180.0 pg/mL | Cortisol Concentration in Plasma (cortisol levels; 4 h): 602.7 pg/mL | Cortisol Concentration in Plasma (cortisol levels; 6 h): 476.3 pg/mL | Cortisol Concentration in Plasma (cortisol levels; 12 h): 377.3 pg/mL | Cortisol Concentration in Plasma (cortisol levels; Pre-dose): 699.3 pg/mL | IC50 (CYP2C19): > 50 µM | IC50 (CYP3A-M): > 50 µM | IC50 (CYP2C9): > 50 µM | IC50 (CYP2D6): > 50 µM | IC50 (human CYP11B2; G-402 CYP11B2 cells, 0.2 μM 11-deoxycorticosterone, 16 hours, read-out: hCYP11B2 (AS) Abs IC50): 0.0264 µM | hCYP11B ½ Selectivity Fold (human CYP11B2; hCYP11B1 IC50 relative to hCYP11B2 IC50): 159.64 Fold | Aldosterone Concentration in Plasma (aldosterone synthesis; 0.5 h): 859.25 pg/mL | Aldosterone Concentration in Plasma (aldosterone synthesis; 1 h (ACTH at +1 hour)): 358.37 pg/mL | Aldosterone Concentration in Plasma (aldosterone synthesis; 2 h): 122.85 pg/mL | Aldosterone Concentration in Plasma (aldosterone synthesis; 4 h): 90.51 pg/mL | Aldosterone Concentration in Plasma (aldosterone synthesis; 6 h): 90.39 pg/mL | Aldosterone Concentration in Plasma (aldosterone synthesis; 12 h): 89.42 pg/mL | Aldosterone Concentration in Plasma (aldosterone synthesis; Pre-dose): 222.84 pg/mL | IC50 (CYP1A2): > 50 µM | Cmax [1]: 152 ng/mL | Tmax [1]: 2 h | half-life [1]: 9.09 h | AUC(0-t) ([1]; read-out: AUC0-24 h): 1960 ng·h/mL | IC50 (human CYP11B1): 4.21 µM
